The values below are quoted from earlier work in patent US10352931B2 (priority 2013, dated 2019).

Usually IC50 stands for the midpoint of a concentration-inhibition curve.

The data set has as its target glutamate carboxypeptidase II (Homo sapiens, UniProt Q04609). The settings on record: examples of inhibitors, Table 1.

glutamate carboxypeptidase II, sequence (Q04609 whole entry, species assumed): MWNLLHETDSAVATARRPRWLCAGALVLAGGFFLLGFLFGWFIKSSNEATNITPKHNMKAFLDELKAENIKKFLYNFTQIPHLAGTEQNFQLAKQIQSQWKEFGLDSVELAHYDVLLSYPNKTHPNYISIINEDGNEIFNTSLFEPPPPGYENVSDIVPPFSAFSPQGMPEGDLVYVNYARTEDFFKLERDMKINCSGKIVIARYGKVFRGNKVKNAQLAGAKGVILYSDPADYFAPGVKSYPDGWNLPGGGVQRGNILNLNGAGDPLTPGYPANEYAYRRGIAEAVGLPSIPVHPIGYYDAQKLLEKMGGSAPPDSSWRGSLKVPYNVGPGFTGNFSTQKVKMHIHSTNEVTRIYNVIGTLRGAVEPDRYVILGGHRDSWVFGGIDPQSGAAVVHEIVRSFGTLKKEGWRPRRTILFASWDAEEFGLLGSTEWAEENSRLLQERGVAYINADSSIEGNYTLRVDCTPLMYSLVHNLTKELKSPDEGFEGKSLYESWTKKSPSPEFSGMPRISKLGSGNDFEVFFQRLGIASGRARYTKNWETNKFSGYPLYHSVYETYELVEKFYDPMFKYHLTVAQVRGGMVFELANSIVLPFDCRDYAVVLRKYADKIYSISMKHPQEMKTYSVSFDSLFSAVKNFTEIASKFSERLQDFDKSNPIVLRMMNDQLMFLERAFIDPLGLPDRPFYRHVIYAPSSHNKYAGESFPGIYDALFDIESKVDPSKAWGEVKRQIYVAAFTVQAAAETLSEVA

With “(S)-2-(hydroxypentafluorophenylmethyl-phosphinoylmethyl)pentanedioic acid”, the IC50 was 34 nM.
